This is an account of results in patent US6638919B2, “Antiviral purine derivatives” (University College Cardiff Consultants Limited, priority 2001, dated 2003).

Data set [1] concerns HIV-1. Conditions: read-out: EC50/μM HIV-1 CEM; Table II, known data disclosed in PCT/GB96/00580; cited from earlier work.
Data set [2] relates to HIV-2. The settings on record: Table II, known data disclosed in PCT/GB96/00580; read-out: EC50/μM HIV-2 CEM; cited from earlier work.
Data set [3] in a line: Acid stability, dilute HCl pH1, simulated stomach conditions. It is filed as physicochemical. The settings on record: 0.1N HCl pH1, 25° C. The method, then:
Compounds were tested for their stability towards acid-mediated hydrolytic decomposition employing a test designed to simulate stomach conditions. Each compound was incubated in dilute HCl of pH1 for 24 hours at 25° C. 0.3 mg of compound were added to 1 mL of 0.1N HCl at 25° C. HPLC was run immediately for time=0 and at intervals up to approximately 24 hours.

Data set [4] can be described thus: Biological stability in heparinised human plasma. Conditions: heparinised human plasma, 37° C.
Protocol: (§4) Each compound was incubated in normal heparinised human plasma at 37° C. for 4 hours. […] Drug concentrations were then determined by LC/MS/MS analysis using standard methods.
The conditions of data set [5]: human, plasma.
Protocol: as §4
For data set [6], the system named is CEM cells. The settings on record: read-out: CC50/μM CEM; Table II, known data disclosed in PCT/GB96/00580; cited from earlier work.
Data set [7] has as its system MSV. The data set can be described thus: Minimum cytotoxic concentration in MSV assay. It is filed as cell-based. The arrangement: unit not given here. The settings on record: Table III. An excerpt:
MCC MSV: minimum cytotoxic concentration in MSV essay.

Data set [8] concerns MSV. The data set can be described thus: Inhibition of MSV. Type of data set: cell-based. Conditions: Table III; inhibition of MSV; read-out: EC50 MSV. The method, then:
EC50 MSV: EC50 μM for inhibition of MSV

For data set [9], the system named is HIV-1. As to the kind of experiment: Inhibition of HIV-1 giant cell formation in CEM cells. It is filed as cell-based. The settings on record: mean increase in potency of phosphoramidate versus its parent nucleoside for HIV 1 and HIV 2.
The subject of data set [10] is HIV-2. The data set can be described thus: Inhibition of HIV-2 giant cell formation in CEM cells. It is filed as cell-based. The method, then:
(§1) Then 100 μL of the infected cell suspension was transferred to microtiter plate wells and mixed with 100 μL of the appropriate dilutions of the test compounds.
HIV1 CEM: EC50 in μM for inhibition of […] in CEM cells.
HIV2 CEM: EC50 in μM for inhibition of HIV-2 in CEM cells

Data set [11] has as its system CEM cells. As to the kind of experiment: Toxicity to mock-infected CEM cells (CC50). Type of data set: cell-based. The method, then:
as §1
(§2) CC50 CEM: CC50 in μM for toxicity to CEM cells.
(§3) CC50 CEM: CC50 μM for toxicity to CEM cells

For data set [12], the system named is HIV-1. As to the kind of experiment: Inhibition of HIV-1 giant cell formation in CEM cells. Type of data set: cell-based. Conditions: CEM cells, giant cell formation after 4 days, Tables I and II, read-out: EC50/μM HIV-1 CEM. The method, then:
as §1
HIV 1 CEM: EC50 in μM for inhibition of HIV1 in CEM cells

Data set [13] can be described thus: Toxicity to mock-infected CEM cells (CC50). It is filed as cell-based. The settings on record: human; mock-infected CEM cells; Tables I and II; read-out: CC50/μM CEM. The method, then:
as §1, §2, §3

Read-outs that look alike come from different tables or passages of the source.

Turning to `COC(=O)C(C)NP(=O)(OC[C@@H]1CC[C@H](n2cnc3c(N)ncnc32)O1)Oc1ccccc1` (stereo partly shown) [Compound 1093, 2′, 3′-dideoxy adenosine 5′-(phenylmethoxyalaninyl) phosphoramidate], the EC50 in data set [1] is 0.016 µM; in data set [2], 0.035 µM. Also, the “time to degradation in acid” value in data set [3] is on record as “less than 13 hours”. Further, the “Compound left (%)” value in [3] (time 0 hr) is listed as 100%; in data set [3] (time 13 hr) it was 0%. Also, in [4], the “Half-life” value came to 4.2 h. The “% Remaining at 4 hours” value in [5] is reported as 50%. The CC50 in data set [6] was 2.57 µM.
The molecule `COC(=O)[C@H](C)NP(=O)(OC[C@@H]1C=C[C@H](n2cnc3c(NC4CC4)nc(N)nc32)C1)Oc1ccccc1` (stereo partly drawn) [Compound 1490, (1S,4R)-4-(2-amino-6-cyclopropylamino-9H-purin-9-yl)-2-cyclopentene-1-methanol O-[phenyl-(methoxy-L-alaninyl)]-phosphate] had an MCCMSV in data set [7] above 4. Also, the EC50 in data set [8] is 1600 nM; in data set [10] (CEM cells, giant cell formation after 4 days, Tables I and II, read-out: EC50/μM HIV-2 CEM) it was 0.09 µM; in data set [10] (Table III, EC50 for inhibition of HIV-2 in CEM cells, read-out: HIV2 CBM), 0.05 µM; in data set [12] it was 0.07 µM. Besides, the “Fold Improvement” value in data set [9] is given as 30.2. In addition, the CC50 in data set [11] came out at 13100 nM.
On to `COC(=O)C(C)NP(=O)(OCC1C=CC(n2cnc3c(=O)[nH]c(N)nc32)C1)Oc1ccccc1` [Example A, (1R, 4S)-9-14-(hydroxymethyl)-2-cyclopenten-2-yl] guanine-5′-[phenyl-(methoxy-L-alaninyl)]-phosphate, reference compound], for which the “Fold Improvement” value in [9] is 1.9. Moreover, the EC50 was 0.85 µM in [10] (Human immunodeficiency virus 2, CCRF-CEM, 96 h, CEM cells, giant cell formation after 4 days, Tables I and II, read-out: EC50/μM HIV-2 CEM); 1.3 µM in data set [12] (Human immunodeficiency virus 1, CCRF-CEM, 96 h). For the same molecule, in data set [13], the CC50 stood at 123 µM.
